# Test results from patent US6867305B2, “Synthesis of epothilones, intermediates thereto and analogues thereof” (Sloan-Kettering Institute for Cancer Research, priority 1996, dated 2005).
# Entries after “also recorded” stand apart in the source; their conditions may differ. Like-named read-outs stand apart in the source and are kept apart here.
# How the values were obtained:
# [1] = tested on: MCF-7/Adr mammary xenograft; experiment: Human tumor xenograft in nude mice; assay type: in vivo
# [2] = tested on: SK-OV-3 human ovary adenocarcinoma; experiment: Tumor cell growth inhibition in vitro; assay type: cell-based
# Procedure: (§1) The cells were cultured at an initial density of 2-5×10^4 cells per ml. […] For solid tumor cells growing in a monolayer (such as MCF-7/Adr), cytotoxicitiy of the drug was determined in 96-well microtiter plates by using the sulforhodamine B method as described by Skehan et al (23) for measuring the cellular protein content. For cells that were grown in suspension (such as CCRF-CEM and its sublines), cytotoxicitiy was measured by using the 2,-3-bis(2-methoxy-4-nitro-5-sulfophenyl)-5carboxanilide)-2H terazodium hydroxide (XTT)-microculture tetrazonium method (24) in duplicate in 96-well microtiter plates. For both methods, the absorbance of each well was measured with a microplate reader (EL-340, Bio-Tek, Burlington, Vt.). Each run entailed six or seven concentrations of the tested drugs. Dose-effect relationship data were analyzed with the median-effect plot (25) by using a previously described computer program (26).
# [3] = tested on: HL-60 human promyelocytic leukemia; experiment: Tumor cell growth inhibition in vitro; assay type: cell-based
# Procedure: as §1
# [4] = tested on: K562 human chronic myeloblastic leukemia; experiment: Tumor cell growth inhibition in vitro; assay type: cell-based
# Procedure: as §1
# [5] = tested on: HT-29 human colon adenocarcinoma; experiment: Tumor cell growth inhibition in vitro; assay type: cell-based
# Procedure: as §1
# [6] = tested on: MCF-7 human mammary adenocarcinoma; experiment: Tumor cell growth inhibition in vitro; assay type: cell-based
# Procedure: as §1
# [7] = tested on: CCRF-CEM/Taxol leukemia xenograft; experiment: Human tumor xenograft in nude mice; assay type: in vivo; details: for Lowest Average Tumor Size (T/C) / Tumor Disappearance: CCRF/Taxol, dEpoB 30 mg/kg, Taxol 20 mg/kg, Q2Dx5, 6-hr i.v. infusion
# Procedure: (§2) Depending on the tumor type, treatment started on day 10 to day 21 when subcutaneous tumor size reached 35-200 mm^3, except otherwise indicated. Tumor size and body-weight were recorded every other day (Q2D) and, for humane reasons, the animals were sacrificed when tumor size reached ≧10% of body-weight. Each group, including untreated control, consisted of 3-5 animals unless otherwise indicated.
# (§3) Athymic nude mice bearing the nu/nu gene were used for all human tumor xenografts. Outbred, Swiss-background mice were obtained from Charles River Laboratories. Male mice 8 weeks or older weighing 22 g and up were used for most experiments. The drug was administered via the tail vein for 6 hr.-i.v. infusion. Each individual mouse was confined in a perforated Falcon polypropylene tube restrainer for drug administration. Tumor volume was assessed by measuring length×width×height (or width) using a caliper. The programmable Harvard PHD2000 syringe pump (Harvard Apparatus) with multi-track was used for i.v. infusion. […] All animal studies were conducted in accordance with the guidelines of the National Institutes of Health “Guide for the Care and Use of Animals” and the protocol approved by the Memorial Sloan-Kettering Cancer Center's Institutional Animal Care and Use Committee. In keeping with the policy of this committee for the humane treatment of tumor-bearing animals, mice were euthanized when tumors reached ≧10% of their total body weight.
# (§4) Human tumor cells (5×10^6) or tumor tissue (30-50 mg) were implanted s.c. flank in nu/nu mice (Charles River Laboratories, Wilmington, Mass.). When tumor grew to a specified size, treatment was started by every-other day×5 with 6 hr i.v.-infusion, unless otherwise indicated. Tumor volume was measured with calipers in three dimensions (length×width×height or width). Body-weight changes and lethality were monitored every other day.
# [8] = tested on: CCRF-CEM/VBL leukemia xenograft; experiment: Human tumor xenograft in nude mice; assay type: in vivo; details: for Lowest Average Tumor Size (T/C) / Tumor Disappearance: CCRF/VBL, dEpoB 30 mg/kg, Taxol 20 mg/kg, Q2Dx5, 6-hr i.v. infusion
# Procedure: as §2, §3, §4
# [9] = tested on: HL-60 promyelocytic leukemia xenograft; experiment: Human tumor xenograft in nude mice; assay type: in vivo
# Procedure: as §2, §3, §4
# [10] = tested on: UL3-C ovary adenocarcinoma xenograft; experiment: Human tumor xenograft in nude mice; assay type: in vivo
# Procedure: as §2, §3, §4
# [11] = tested on: HT-29 colon adenocarcinoma xenograft; experiment: Human tumor xenograft in nude mice; assay type: in vivo
# Procedure: as §2, §3, §4
# [12] = tested on: PC-3 prostate adenocarcinoma xenograft; experiment: Human tumor xenograft in nude mice; assay type: in vivo
# Procedure: as §2, §3, §4
# [13] = tested on: A549 lung carcinoma xenograft; experiment: Human tumor xenograft in nude mice; assay type: in vivo
# Procedure: as §2, §3, §4
# [14] = Body-weight decrease and lethality in tumor-bearing nude mice
# Procedure: as §2
# Essential features of useful cancer therapeutic agent involve not only high efficiency against cancer but also low toxicity toward the host, especially toward vital organs or functions [i.e. wide therapeutic window or high therapeutic index (LD50/ED50)].
# as §4
# [15] = tested on: K562 chronic myelocytic leukemia xenograft; experiment: Human tumor xenograft in nude mice; assay type: in vivo; details: for Lowest Average Tumor Size (T/C) / Tumor Disappearance: Taxol 20 mg/kg, Q2Dx5, 6-hr i.v. infusion
# Procedure: FIG. 34 depicts tumor size in nude mice bearing human leukemia […] tumor following 6 mg/kg C-15-Aza-EpoB, Q2D×6 and 30 mg/kg dEpoF, Q2ED×6 (i.v. infusion […].). K562 tumor cells (1×10^7 in 0.2 mL) were inoculated to nude mice on day 0. Mice were treated with 6 mg/kg aza-EpoB, 6 h-i.v. infusion on days 20, 22, 24, 26, 28 and 30 (Δ, n=3). The same group of mice were then treated with 30 mg/kg dEpoF, 6 h-i.v. infusion on days 42, 44, 46, 48, 52, and 54 (Δ, n=3). […] The control mice (∘, n=3) received vehicle only.
# K562 tumor cells (1×10^7, in 0.2 ml/mouse) were implanted s.c. on day 0. […] The control mice (∘, n=4) received vehicle, Cremophor-ethanol (1:1), only. The vertical bars indicate mean tumor size in mm^3±S.E.
# as §2, §3, §4
# [16] = dEpoB 30 mg/kg, Taxol 24 mg/kg, Q2Dx5, 6-hr i.v. infusion
# [17] = Homo sapiens, MCF7, MCF-7, read-out: IC50
# [18] = HL-60, dEpoB 30 mg/kg, Taxol 20 mg/kg, Q2Dx5, 6-hr i.v. infusion
# [19] = dEpoB 30 mg/kg, Taxol 20 mg/kg, Q2Dx5, 6-hr i.v. infusion
# [20] = HT-29, dEpoB 30 mg/kg, Taxol 15 mg/kg, Q2Dx6, 6-hr i.v. infusion
# [21] = PC-3, dEpoB 40 mg/kg, Taxol 15 mg/kg, Q2Dx3, 6-hr i.v. infusion
# [22] = A549, dEpoB 40 mg/kg, Taxol 15 mg/kg, Q2Dx3, 6-hr i.v. infusion
# [23] = K562, i.v. infusion (dEpoF vs 15-azaEpoB)
# [24] = Homo sapiens, K562, K562, read-out: IC50
structure (smiles),measurement,setting,value
"CC(=O)O[C@H]1C(=O)[C@@]2(C)[C@H]([C@H](OC(=O)c3ccccc3)[C@]3(O)C[C@H](OC(=O)[C@H](O)[C@@H](NC(=O)c4ccccc4)c4ccccc4)C(C)=C1C3(C)C)[C@]1(OC(C)=O)CO[C@@H]1C[C@@H]2O [Taxol, paclitaxel, reference compound]",Tumor Disappearance,[1]; [16],0/4
same,IC50,[2],3.8 nM
same,IC50,[3],1.1 nM
same,IC50,"[4]; Homo sapiens, K562, read-out: IC50",2.9 nM
same,IC50,[5],1.6 nM
same,IC50,[6]; [17],2.4 nM
same,Lowest Average Tumor Size (T/C),[7],0.32
same,Tumor Disappearance,[7],0/2
same,Lowest Average Tumor Size (T/C),[8],0.62
same,Tumor Disappearance,[8],0/2
same,Tumor Disappearance,[9]; [18],4/4
same,Tumor Disappearance,[10]; [19],0/3
same,Tumor Disappearance,[11]; [20],0/4
same,Tumor Disappearance,[12]; [21],0/4
same,Tumor Disappearance,[13]; [22],2/4
same,body-weight decrease without lethality at the doses used,"[14]; mouse, in vivo",10-20%
same,Lowest Average Tumor Size (T/C),"[15]; K562, dEpoB 30 mg/kg",0.18
same,Tumor Disappearance,"[15]; K562, dEpoB 30 mg/kg",0/6
"C/C(=C\c1csc(C)n1)C1C[C@@H]2O[C@]2(C)CCC[C@H](C)[C@H](O)[C@@H](C)C(=O)C(C)(C)C(O)CC(=O)N1 (some centres unmarked) [aza-EpoB, aza-epothilone B]",IC50,[2],16 nM
same,IC50,[3],2.5 nM
same,IC50,"[4]; K562, listed as 15-aza-EpoB, read-out: IC50",60 nM
same,IC50,"[4]; K562, read-out: IC50",4 nM
same,IC50,[5],3.2 nM
same,IC50,[6]; [17],4.3 nM
same,drop in body-weight that led to lethality,[14]; nude mice,14-20%
same,therapeutic effect on tumor growth,"[15]; K562, aza-EpoB 6 mg/kg Q2D×6, 6 h-i.v. infusion (FIG. 34)",inhibited tumor growth but did not lead to a reduction in the size of the tumor
same,therapeutic effect on tumor growth,"[15]; K562, aza-EpoB 6 mg/kg Q2D×6, 6 h-i.v. infusion (FIG. 34), listed as azaEpoB",strongly suppressed tumor growth but did not shrink the tumor
same,Therapeutic Effect Rank Order,[15]; [23],dEpoF>>>15-azaEpoB
"C/C1=C/C[C@@H](/C(C)=C/c2csc(C)n2)OC(=O)C[C@H](O)C(C)(C)C(=O)[C@H](C)[C@@H](O)[C@@H](C)CCC1 [dEpoB, 12,13-desoxyepothilone B]",Lowest Average Tumor Size (T/C),[1]; [16],0.11
same,Tumor Disappearance,[1]; [16],0/3
same,Therapeutic Effect Rank Order,"[1]; i.p., ref 19 (Table 5)",dEpoB>Camptothecin>Adriamycin>Taxol
same,Therapeutic Effect Rank Order,[1]; i.v. infusion,"dEpoB>>VP-16, Taxol>VBL, Adriamycin"
same,IC50,[2],3.5 nM
same,IC50,[3],3.1 nM
same,IC50,[4]; [24],3.6 nM
same,IC50,[4]; K562,6.9 nM
same,IC50,[5],4.8 nM
same,IC50,[6]; [17],4 nM
same,IC50,[6]; MCF-7,3.8 nM
same,Therapeutic Effect Rank Order,"[7]; CCRF-CEM/Taxol, i.v. infusion",dEpoB>>>Taxol
same,Lowest Average Tumor Size (T/C),[7],0
same,Tumor Disappearance,[7],3/3
same,Therapeutic Effect Rank Order,"[8]; CCRF-CEM/VBL, i.v. infusion",dEpoB>>>Taxol
same,Lowest Average Tumor Size (T/C),[8],0
same,Tumor Disappearance,[8],2/2
same,Therapeutic Effect Rank Order,"[9]; HL-60, i.v. infusion",Taxol≧ dEpoB
same,Lowest Average Tumor Size (T/C),[9]; [18],0.01
same,Tumor Disappearance,[9]; [18],2/3
same,Lowest Average Tumor Size (T/C),[10]; [19],0.03
same,Tumor Disappearance,[10]; [19],0/3
same,Therapeutic Effect Rank Order,[10]; i.v. infusion,dEpoB≧ Taxol
same,Therapeutic Effect Rank Order,"[11]; HT-29, i.v. infusion",Taxol>dEpoB
same,Lowest Average Tumor Size (T/C),[11]; [20],0.02
same,Tumor Disappearance,[11]; [20],0/3
same,Therapeutic Effect Rank Order,"[12]; PC-3, i.v. infusion","Taxol, VBL>dEpoB>>VP-16"
same,Therapeutic Effect Rank Order,"[12]; PC-3, i.v. or i/p.",Taxol>dEpoB>>Adriamycin
same,Therapeutic Effects dEpoB vs Taxol,"[12]; PC-3, dEpoB 40 mg/kg, Taxol 15 mg/kg, Q2Dx3",<<
same,Lowest Average Tumor Size (T/C),[12]; [21],0.12
same,Tumor Disappearance,[12]; [21],0/3
same,Therapeutic Effect Rank Order,"[13]; A549, i.v. infusion","Taxol, dEpoB, VBL>VP-16"
same,Lowest Average Tumor Size (T/C),[13]; [22],0.01
same,Tumor Disappearance,[13]; [22],1/3
same,body-weight decrease without lethality at the doses used,"[14]; dEpoB 30-40 mg/kg, paclitaxel 15-24 mg/kg, 6-hr i.v. infusion",10-20%
same,drop in body-weight during treatment without causing lethality,[14]; nude mice,23-29%
same,Therapeutic Effect Rank Order,"[15]; K562, i.v. infusion, FIG. 3 & 4",dEpoB>>>VBL> Taxol> Adriamycin
same,therapeutic effect of single course,"[15]; K562, single course Q2D×3, dEpoB 30 mg/kg (FIG. 37)",disappearance of K562 xenografts for four weeks
same,therapeutic effect,"[15]; K562, dEpoB 30 mg/kg, Taxol 20 mg/kg 6 hr i.v. infusion, Adriamycin 3 mg/kg, vinblastine 2.5 mg/kg i.v., every other day from day 20 (FIG. 36)",Complete remission
same,Lowest Average Tumor Size (T/C),"[15]; K562, dEpoB 30 mg/kg",0
same,Tumor Disappearance,"[15]; K562, dEpoB 30 mg/kg",5/5
same,tumor size after treatment,"[15]; K562 tumor as large as 880 mm^3 after paclitaxel, then dEpoB 30 mg/kg (Q2D×3)×3",less than 20 mm^3
"C/C1=C/C[C@@H](/C(C)=C/c2csc(CO)n2)OC(=O)C[C@H](O)C(C)(C)C(=O)[C@H](C)[C@@H](O)[C@@H](C)CCC1 [dEpoF, 12,13-Desoxyepothilone F]",IC50,[2],5.1 nM
same,IC50,[3],0.7 nM
same,IC50,[4]; [24],2.1 nM
same,IC50,[5],1.4 nM
same,IC50,[6]; [17],6.9 nM
same,IC50,[6]; MCF-7,10 nM
same,drop in body-weight during treatment without causing lethality,[14]; nude mice,23-29%
same,tumor free mice on day 76,"[15]; K562, aza-EpoB 6 mg/kg then dEpoF 30 mg/kg, n=3",all three mice were tumor free
same,therapeutic effect on tumor growth,"[15]; K562, dEpoF 30 mg/kg Q2D×6 in the same mice after aza-EpoB, tumor near 500 mm^3 (FIG. 34)",readily induced reduction in the size of the tumor to the point of remission; also recorded: The tumor mass eventually disappeared three weeks later
same,Therapeutic Effect Rank Order,[15]; [23],dEpoF>>>15-azaEpoB
